“Also recorded” adds a separate entry of the source.
Legend:
[1] = system: germ cells of wild-type fetal ovaries (e13.5); test: Fetal ovary culture without hormonal support, germ cell survival; assay type: cell-based, mouse
Experimental: To determine the basis of the extensive oocyte hyperplasia in ASMase −/− neonates, fetal ovaries are harvested from wild-type and mutant mice at embryonic day 13.5 (e13.5) for in vitro culture as a model to recapitulate the events surrounding germline death that occurs as a normal component of female gametogenesis. A time-dependent activation of programmed cell death is observed in the germline of wild-type fetal ovaries cultured without hormonal support for up to 72 hours (FIG. 2A). […] These findings indicate that there exists an ovarian-intrinsic cell death defect in the ASMase-deficient mouse, and point to enhanced survival of the developing germline during oogenesis as the mechanism underlying the enlarged oocyte pool seen in mutant females at birth.
Equivalent levels of in vitro germ cell survival are obtained by either ASMase gene knockout (FIG. 2A) or by S1P treatment (FIG. 2B).

[2] = system: ovaries (oocyte-containing follicles); test: S1P protection against radiation in vivo, histomorphometric count of non-atretic oocyte-containing follicles; set-up: species or system mouse
Experimental: The serial sections from each ovary are aligned in order on glass microscope slides, stained with hematoxylin/picric methyl blue, and analyzed for the number of healthy (non-atretic) oocyte-containing primordial, primary and small preantral follicles as described by Perez et al. Nat. Genet.
Young adult (postpartum day 40) wild-type female mice are anesthetized, and dorsal incisions are made to retrieve and expose the ovaries. Five μl of vehicle (PET) are injected into the bursa of one ovary of the pair while 5 μl of a stock of either 0.5 or 2 mM S1P, prepared in PET, are injected into the bursa of the contralateral ovary. Based on an estimated bursal cavity volume of 50 μl, the final concentrations of S1P in the bursal cavity for ovarian exposure following administration of the 0.5 and 2 mM stocks are approximately 50 and 200 μM, respectively. The ovaries are returned to the peritoneal cavity, the incisions are sutured, and the mice are allowed to recover for a 2 hour pretreatment period prior to a single exposure to 0.1 Gy of abdominally-directed ionizing radiation.

F1 and F2 mice = test: Necropsy, histology and hematology of F1 and F2 offspring; assay type: in vivo; conditions: for HCT / HGB, Hemoglobin / MCH, Mean Corpuscular Hemoglobin / MCHC, Mean Corpuscular Hemoglobin Content / MCV, Mean Corpuscular Volume / RBC, Red Blood Cell Count / WBC, Total White Blood Cell Count: 0.1 Gy + S1P, mean, 95% confidence limit; for Pathology, gross necropsy / Pathology, histology: offspring of 0.1 Gy + S1P mothers
Experimental: When the F1 animals reach 18-20 months of age and the F2 animals reach 12-16 months of age, all mice are euthanized and subjected to gross necropsy and biochemical analysis. Organs from a subgroup of 65 randomly selected animals in the two different generations are also subjected to complete histologic analysis.
Eighteen to 20 month-old F1 mice, and 12-16 month-old F2 mice, are euthanized and gross pathology is assessed immediately upon death. In a total of 484 mice, the heart, lung, stomach, small and large intestine, liver, salivary gland, kidney, urinary bladder, brain, cervical spinal cord, muscle, bone, bone marrow, skin, pituitary, thyroid, pancreas, adrenal, lymph node, spleen, thymus, testis (males), seminal vesicle (males), prostate (males), ovary (females), and uterus (females) are evaluated. Any organ showing gross abnormalities is fixed with 10% paraformaldehyde, encased in paraffin, and stained with hematoxylin and eosin for in-depth histologic analysis. Furthermore, histology on all organs is performed on 65 randomly selected mice of different generations (F1 or F2), different genders, and different experimental treatments. From an additional 28 randomly-selected mice, blood is collected by cardiac puncture for hematologic analysis, and in 9 animals full differential counts are performed. Differential white cell counts are also performed in all mice displaying a pathological phenotype.

F0 oocytes = test: DNA damage in F0 oocytes scored at diakinesis/metaphase I; assay type: in vivo, mouse
[3] = system: polychromatic erythrocytes of F0, F1 and F2 mice; test: Micronuclei assay in polychromatic erythrocytes of tail blood; assay type: in vivo, mouse
Text: To evaluate the possibility of transgenerational transmission of DNA damage, the frequency of micronuclei is used as a sensitive indicator of the extent of propagated genomic damage (Trott, K. R., Jamali, M., Manti, L. & Teibe, A. Manifestations and mechanisms of radiation-induced genomic instability in V-79 Chinese hamster cells. Int. J. Radiat. Biol. 74, 787-791 (1998); Manti, L., Jamali, M., Prise, K. M., Michael B. D. & Trott, K. R. Genomic instability in Chinese hamster ovary cells after exposure to X rays or alpha particles of different mean energy transfer. Radiat. Res. 147, 22-28 (1997)). Tail blood samples from 16-18 month old non-irradiated, vehicle-treated and irradiated, or S1P-treated and irradiated F0 mice, 16-18 month old F1 mice, or 12-16 month old F2 mice, are smeared onto glass microscope slides coated with acridine orange (Shinko Corporation, New York, N.Y.), and coded prior to analysis. The frequency of micronuclei is then assessed in the 10^3 polychromatic erythrocytes by flourescence microscopy (Hayashi, M., Morita, T., Kodama, Y., Sofuni, T., & Ishidate, M., Jr. The micronucleus assay with mouse peripheral blood reticulocytes using acridine orange-coated slides. Mutat. Res. 245, 245-249 (1990)), after which the slides are decoded for data interpretation.

oocytes = conditions: mouse oocytes cultured with S1P before doxorubicin exposure; Perez et al. (1997); cited from earlier work
[4] = system: ovaries (oocyte-containing follicles); conditions: Morita et al., Nat. Med. 6 (2000); cited from earlier work
[5] = N=189, numbers in parenthesis = animals

## CCCCCCCCCCCCC/C=C/[C@@H](O)[C@@H](N)COP(=O)(O)O [S1P, sphingosine-1-phosphate]
[1]; after 72 hours of hormone deprivation, versus 0 h
  share of starting population of germ cells preserved: Over one-half of the starting population of germ cells (0 h or Time 0) is preserved
[1]; wild-type fetal ovaries, 72 hours in vitro without hormonal support, FB1 5-500 μM, S1P increasing concentrations
  germ cell survival / germ cell apoptosis in cultured fetal ovaries: the reduced incidence of germ cell apoptosis conveyed by ASMase-deficiency is recapitulated
[2]; S1P approx. 50 and 200 μM intrabursal, two hours before 0.1 Gy, ovaries two weeks later
  preservation of the germ cell reserve: significant and dose-dependent preservation of the germ cell reserve
[2]; general statement
  side effects on the ovaries: safe and without side effects on the ovaries
[2]; highest dose of S1P (200 μM in bursal cavity), two hours before 0.1 Gy, two weeks post-irradiation
  protection of follicle populations after irradiation: complete protection of the quiescent (primordial) and growing (primary, preantral) follicle populations; also recorded: retain a completely normal distribution of oocyte-containing follicles at all stages of development; also recorded: indistinguishable from non-irradiated controls; also recorded: Complete protection of the female germline from radiation-induced death
[2]; in the absence of irradiation, intrabursal S1P
  number of follicles at any stage of development versus vehicle-treated ovaries: does not significantly differ
F1 and F2 mice; first group (N=69)
  HCT: 45.4
  HGB, Hemoglobin: 14.2 g/dL
  MCH, Mean Corpuscular Hemoglobin: 15.3 pg
  MCHC, Mean Corpuscular Hemoglobin Content: 31.4 g/dL
  MCV, Mean Corpuscular Volume: 49.1 fL
  RBC, Red Blood Cell Count: 9.3e+12 L⁻¹
  WBC, Total White Blood Cell Count: 1.09e+10 L⁻¹
F1 and F2 mice; second group (N=189)
  HCT: 46.3
  HGB, Hemoglobin: 14.9 g/dL
  MCH, Mean Corpuscular Hemoglobin: 15.9 pg
  MCHC, Mean Corpuscular Hemoglobin Content: 30.8 g/dL
  MCV, Mean Corpuscular Volume: 49.2 fL
  RBC, Red Blood Cell Count: 9.4e+12 L⁻¹
  WBC, Total White Blood Cell Count: 1.1e+10 L⁻¹
F1 and F2 mice; F1 at 18-20 months, F2 at 12-16 months
  gross histologic or biochemical abnormalities in offspring: No gross histologic or biochemical abnormalities
F1 and F2 mice; N=69
  Pathology, gross necropsy: Enlarged uterus; also recorded: Perineal tumor
F1 and F2 mice; N=69, numbers in parenthesis = animals
  Pathology, histology: LI in liver (2); also recorded: LI in lung (3); also recorded: Mucometra; also recorded: Lipoma
F1 and F2 mice; [5]
  Pathology, gross necropsy: Dermatitis (3); also recorded: Cyst in right ovary; also recorded: Alopecia; also recorded: Traumatic injury
  Pathology, histology: LI in lung (7); also recorded: Liver (3); also recorded: Kidney; also recorded: Ovarian cyst
F0 oocytes; 0.05 Gy + S1P
  Oocytes with Breaks/Crosstalk (% of total): 16.4%
F0 oocytes; 0.05 Gy + S1P (200 μM intrabursal), 8 weeks after irradiation, n=8
  Average Oocytes/o (mean ± SEM): 30.8 ± 3.9
F0 oocytes; 0.05 Gy + S1P, of 110 total scorable oocytes
  Oocytes with Breaks/Crosstalk, number: 18
F0 oocytes; 0.1 Gy + S1P
  Oocytes with Breaks/Crosstalk (% of total): 27.6%
F0 oocytes; 0.1 Gy + S1P, of 86 total scorable oocytes
  Oocytes with Breaks/Crosstalk, number: 24
F0 oocytes; S1P-treated irradiated females
  percentage of oocyte population manifesting DNA damage versus vehicle-treated irradiated mice: no increase in the percentage of the oocyte population manifesting DNA damage
[3]; 0.1 Gy, S1P-treated, statistically significant (P<0.01)
  frequency of micronuclei in F0 animals versus non-irradiated controls: small increase in the frequency of micronuclei over non-irradiated controls
[3]; F0, 0.1 Gy
  frequency of micronuclei, vehicle-treated versus S1P-treated irradiated mice: no significant difference in the frequency of micronuclei
oocytes
  protection of oocytes from doxorubicin-induced death in vitro: protected the oocytes from death induced by subsequent doxorubicin exposure for up to 24 hours
[4]
  protection of oocyte population from apoptotic death following radiotherapy: essentially protects the entire oocyte population from apoptotic death

From patent publication US7850984B2, “Protection of the female reproductive system from natural and artificial insults” (The General Hospital Corporation, priority 2000, dated 2010)
